# Experiments:
# Assay in all cases: biochemical
# Design in all cases: KINOMEscan competition binding panel (Eurofins DiscoverX), single concentration, percent inhibition
# Conditions in all cases: read-out: 15 at 1 µM % inhibition
# ADCK3 = target: T1, ADCK3 (Homo sapiens, UniProt Q8NI60)
# T1 construct: gene COQ8A
# Method in brief: (§1)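 KINOMEscan binding panel of >400 kinases, run by Eurofins DiscoverX, with compounds tested at a single concentration of 1 µM.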
# MRCKB = target: T2, MRCKB (Homo sapiens, UniProt Q9Y5S2)
# T2 construct: gene CDC42BPB
# Method in brief: as §1
# KIT(V559D,V654A) = KIT(V559D,V654A) (Homo sapiens, UniProt P10721, V559D/V654A)
# Method in brief: as §1
# CSK = CSK (Homo sapiens, UniProt P41240)
# Method in brief: as §1
# PRKCH = PRKCH (Homo sapiens, UniProt P24723)
# Method in brief: as §1
# GRK7 = GRK7 (Homo sapiens, UniProt Q8WTQ7)
# Method in brief: as §1
# IGF1R = IGF1R (Homo sapiens, UniProt P08069)
# Method in brief: as §1
# RIPK5 = target: T3, RIPK5 (Homo sapiens, UniProt Q6XUX3)
# T3 construct: gene DSTYK
# Method in brief: as §1
# BUB1 = BUB1 (Homo sapiens, UniProt O43683)
# Method in brief: as §1
# TXK = TXK (Homo sapiens, UniProt P42681)
# Method in brief: as §1
# [1] = target: T4, JAK2(JH1domain-catalytic) (Homo sapiens, UniProt O60674)
# T4 construct: JH1domain-catalytic
# Method in brief: as §1
# PAK6 = PAK6 (Homo sapiens, UniProt Q9NQU5)
# Method in brief: as §1
# MST4 = target: T5, MST4 (Homo sapiens, UniProt Q9P289)
# T5 construct: gene STK26
# Method in brief: as §1
# AKT1 = AKT1 (Homo sapiens, UniProt P31749)
# Method in brief: as §1
# EPHA8 = EPHA8 (Homo sapiens, UniProt P29322)
# Method in brief: as §1
# TIE1 = TIE1 (Homo sapiens, UniProt P35590)
# Method in brief: as §1
# WNK3 = WNK3 (Homo sapiens, UniProt Q9BYP7)
# Method in brief: as §1
# EPHB2 = EPHB2 (Homo sapiens, UniProt P29323)
# Method in brief: as §1
# CDK4-cyclinD3 = target: T6, CDK4-cyclinD3 (Homo sapiens, UniProt P11802)
# T6 construct: cyclinD3
# Method in brief: as §1
# PDPK1 = PDPK1 (Homo sapiens, UniProt O15530)
# Method in brief: as §1
# MAP3K2 = MAP3K2 (Homo sapiens, UniProt Q9Y2U5)
# Method in brief: as §1
# CAMK1 = CAMK1 (Homo sapiens, UniProt Q14012)
# Method in brief: as §1
# FGFR4 = FGFR4 (Homo sapiens, UniProt P22455)
# Method in brief: as §1
# LRRK2(G2019S) = LRRK2(G2019S) (Homo sapiens, UniProt Q5S007, G2019S)
# Method in brief: as §1
# Sequence of PRKCH (P24723 whole entry): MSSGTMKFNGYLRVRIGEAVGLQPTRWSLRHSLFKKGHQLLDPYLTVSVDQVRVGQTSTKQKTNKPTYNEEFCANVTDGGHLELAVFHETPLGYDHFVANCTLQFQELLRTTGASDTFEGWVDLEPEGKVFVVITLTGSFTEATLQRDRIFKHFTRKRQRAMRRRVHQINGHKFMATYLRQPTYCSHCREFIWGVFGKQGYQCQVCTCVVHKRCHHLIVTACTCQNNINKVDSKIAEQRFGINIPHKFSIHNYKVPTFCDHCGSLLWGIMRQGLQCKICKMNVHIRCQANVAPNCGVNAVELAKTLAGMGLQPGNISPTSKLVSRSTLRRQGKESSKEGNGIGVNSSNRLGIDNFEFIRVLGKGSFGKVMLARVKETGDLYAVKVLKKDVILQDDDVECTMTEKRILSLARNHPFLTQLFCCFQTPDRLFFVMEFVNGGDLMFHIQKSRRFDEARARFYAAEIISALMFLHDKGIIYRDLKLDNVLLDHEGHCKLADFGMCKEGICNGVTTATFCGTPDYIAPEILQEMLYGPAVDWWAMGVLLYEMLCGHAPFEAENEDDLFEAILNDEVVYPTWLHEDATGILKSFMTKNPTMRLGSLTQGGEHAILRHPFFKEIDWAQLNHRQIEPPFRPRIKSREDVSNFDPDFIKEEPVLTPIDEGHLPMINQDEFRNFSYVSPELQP
# Sequence of MAP3K2 (Q9Y2U5 whole entry): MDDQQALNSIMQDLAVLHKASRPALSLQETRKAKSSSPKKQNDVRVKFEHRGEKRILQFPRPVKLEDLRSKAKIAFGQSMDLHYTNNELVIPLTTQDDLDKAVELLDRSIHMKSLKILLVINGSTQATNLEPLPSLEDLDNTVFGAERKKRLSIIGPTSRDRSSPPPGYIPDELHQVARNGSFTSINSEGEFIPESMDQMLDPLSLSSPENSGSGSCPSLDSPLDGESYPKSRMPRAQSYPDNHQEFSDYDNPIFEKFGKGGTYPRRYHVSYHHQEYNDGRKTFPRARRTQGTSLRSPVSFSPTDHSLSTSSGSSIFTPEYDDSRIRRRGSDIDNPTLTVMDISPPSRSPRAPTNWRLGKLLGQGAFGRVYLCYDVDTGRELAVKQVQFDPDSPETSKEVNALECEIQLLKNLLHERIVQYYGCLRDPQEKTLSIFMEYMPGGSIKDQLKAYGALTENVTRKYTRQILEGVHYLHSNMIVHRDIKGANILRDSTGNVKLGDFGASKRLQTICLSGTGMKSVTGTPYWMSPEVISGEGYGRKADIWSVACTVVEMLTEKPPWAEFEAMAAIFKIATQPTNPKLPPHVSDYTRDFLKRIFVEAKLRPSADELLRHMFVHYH
# Sequence of TIE1 (P35590 whole entry): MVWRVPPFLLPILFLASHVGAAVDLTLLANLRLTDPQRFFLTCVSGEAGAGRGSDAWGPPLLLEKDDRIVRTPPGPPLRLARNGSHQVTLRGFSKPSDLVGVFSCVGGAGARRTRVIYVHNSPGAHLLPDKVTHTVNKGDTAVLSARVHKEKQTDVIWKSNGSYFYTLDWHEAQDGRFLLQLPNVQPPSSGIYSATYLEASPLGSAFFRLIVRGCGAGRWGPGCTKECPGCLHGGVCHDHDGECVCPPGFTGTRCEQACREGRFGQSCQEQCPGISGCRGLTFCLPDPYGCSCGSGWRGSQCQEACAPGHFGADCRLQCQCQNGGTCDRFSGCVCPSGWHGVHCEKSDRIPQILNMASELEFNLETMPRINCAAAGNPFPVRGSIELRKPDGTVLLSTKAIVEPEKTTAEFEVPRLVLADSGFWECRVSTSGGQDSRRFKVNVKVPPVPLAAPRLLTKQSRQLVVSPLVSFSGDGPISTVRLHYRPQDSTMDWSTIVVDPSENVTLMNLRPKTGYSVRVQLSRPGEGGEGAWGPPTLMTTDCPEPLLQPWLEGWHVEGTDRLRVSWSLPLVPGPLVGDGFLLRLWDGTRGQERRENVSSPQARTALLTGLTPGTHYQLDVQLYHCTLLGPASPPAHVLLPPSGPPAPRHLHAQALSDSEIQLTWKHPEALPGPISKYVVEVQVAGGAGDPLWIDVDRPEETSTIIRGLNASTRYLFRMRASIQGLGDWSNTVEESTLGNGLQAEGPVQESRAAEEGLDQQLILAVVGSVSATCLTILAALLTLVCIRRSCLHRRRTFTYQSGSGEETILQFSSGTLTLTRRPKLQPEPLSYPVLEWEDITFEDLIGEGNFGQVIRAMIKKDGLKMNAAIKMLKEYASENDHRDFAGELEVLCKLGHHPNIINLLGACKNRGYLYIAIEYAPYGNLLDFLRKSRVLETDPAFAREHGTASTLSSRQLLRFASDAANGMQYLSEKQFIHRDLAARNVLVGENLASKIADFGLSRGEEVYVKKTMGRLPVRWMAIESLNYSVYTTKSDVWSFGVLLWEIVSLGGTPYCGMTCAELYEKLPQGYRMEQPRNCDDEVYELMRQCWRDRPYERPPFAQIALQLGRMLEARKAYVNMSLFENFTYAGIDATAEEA
# Sequence of LRRK2(G2019S) (Q5S007 whole entry G2019S): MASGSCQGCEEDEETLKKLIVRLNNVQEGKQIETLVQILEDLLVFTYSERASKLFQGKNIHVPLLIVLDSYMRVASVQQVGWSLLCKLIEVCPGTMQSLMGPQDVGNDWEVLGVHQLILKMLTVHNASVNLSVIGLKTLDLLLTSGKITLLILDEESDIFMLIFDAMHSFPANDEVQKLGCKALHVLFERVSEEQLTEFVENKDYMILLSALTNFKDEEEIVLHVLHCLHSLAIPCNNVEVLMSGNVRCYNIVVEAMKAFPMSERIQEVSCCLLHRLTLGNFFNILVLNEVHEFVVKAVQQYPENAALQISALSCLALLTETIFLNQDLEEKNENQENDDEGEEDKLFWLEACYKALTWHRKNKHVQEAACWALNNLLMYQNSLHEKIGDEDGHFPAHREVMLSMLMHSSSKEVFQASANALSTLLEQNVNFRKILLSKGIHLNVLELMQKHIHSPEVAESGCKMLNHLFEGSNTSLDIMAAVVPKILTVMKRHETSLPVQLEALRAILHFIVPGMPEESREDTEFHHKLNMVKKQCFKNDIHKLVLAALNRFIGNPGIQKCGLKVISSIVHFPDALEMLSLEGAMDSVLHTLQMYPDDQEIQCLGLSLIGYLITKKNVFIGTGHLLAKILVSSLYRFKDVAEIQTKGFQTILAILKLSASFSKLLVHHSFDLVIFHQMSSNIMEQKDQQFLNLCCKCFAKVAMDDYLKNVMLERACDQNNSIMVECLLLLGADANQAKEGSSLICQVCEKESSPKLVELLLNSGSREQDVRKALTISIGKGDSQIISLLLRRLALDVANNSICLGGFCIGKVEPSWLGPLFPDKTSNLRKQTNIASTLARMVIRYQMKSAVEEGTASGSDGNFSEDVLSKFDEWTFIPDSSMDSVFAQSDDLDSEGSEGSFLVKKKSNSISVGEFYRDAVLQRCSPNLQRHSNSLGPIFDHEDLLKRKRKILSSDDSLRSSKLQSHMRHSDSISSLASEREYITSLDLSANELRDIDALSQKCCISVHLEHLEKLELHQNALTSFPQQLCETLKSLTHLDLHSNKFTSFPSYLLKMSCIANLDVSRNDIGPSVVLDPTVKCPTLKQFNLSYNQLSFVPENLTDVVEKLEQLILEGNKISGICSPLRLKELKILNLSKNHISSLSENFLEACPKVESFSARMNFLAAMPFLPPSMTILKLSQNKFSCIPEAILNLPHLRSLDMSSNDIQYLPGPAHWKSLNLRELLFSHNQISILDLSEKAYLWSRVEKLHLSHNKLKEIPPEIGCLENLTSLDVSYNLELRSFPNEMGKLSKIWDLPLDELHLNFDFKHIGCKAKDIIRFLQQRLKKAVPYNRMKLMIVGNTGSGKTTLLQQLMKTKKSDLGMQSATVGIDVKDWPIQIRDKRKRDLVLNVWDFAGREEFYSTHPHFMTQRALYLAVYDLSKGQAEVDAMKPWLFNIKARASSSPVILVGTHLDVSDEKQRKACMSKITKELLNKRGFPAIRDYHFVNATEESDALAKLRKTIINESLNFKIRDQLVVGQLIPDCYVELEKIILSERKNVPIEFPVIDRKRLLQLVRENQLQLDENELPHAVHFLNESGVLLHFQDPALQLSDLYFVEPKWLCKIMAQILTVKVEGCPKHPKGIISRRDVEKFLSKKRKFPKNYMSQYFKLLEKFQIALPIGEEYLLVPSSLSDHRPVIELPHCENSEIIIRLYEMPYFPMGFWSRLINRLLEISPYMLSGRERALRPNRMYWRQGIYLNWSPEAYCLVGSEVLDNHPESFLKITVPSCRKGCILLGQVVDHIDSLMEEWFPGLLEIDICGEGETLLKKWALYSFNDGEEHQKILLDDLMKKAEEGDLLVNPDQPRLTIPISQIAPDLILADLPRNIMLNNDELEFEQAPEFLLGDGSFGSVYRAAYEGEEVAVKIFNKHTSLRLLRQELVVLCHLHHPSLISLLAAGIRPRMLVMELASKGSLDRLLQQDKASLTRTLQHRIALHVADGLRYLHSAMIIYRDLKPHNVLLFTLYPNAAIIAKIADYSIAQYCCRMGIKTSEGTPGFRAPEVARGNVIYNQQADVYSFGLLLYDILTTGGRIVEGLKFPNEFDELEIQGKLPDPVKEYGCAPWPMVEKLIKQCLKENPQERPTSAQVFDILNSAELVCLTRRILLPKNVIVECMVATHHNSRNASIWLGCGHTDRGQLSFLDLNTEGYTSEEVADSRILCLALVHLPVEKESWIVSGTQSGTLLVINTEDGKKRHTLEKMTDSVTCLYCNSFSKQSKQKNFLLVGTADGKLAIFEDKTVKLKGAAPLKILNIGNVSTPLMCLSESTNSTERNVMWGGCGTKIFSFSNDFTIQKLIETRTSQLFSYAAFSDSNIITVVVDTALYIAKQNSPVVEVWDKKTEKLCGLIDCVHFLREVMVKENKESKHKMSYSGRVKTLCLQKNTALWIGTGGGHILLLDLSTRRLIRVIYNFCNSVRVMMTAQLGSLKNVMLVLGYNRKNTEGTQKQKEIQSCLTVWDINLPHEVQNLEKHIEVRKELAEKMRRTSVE
compound,measurement,setting,value
"CNS(=O)(=O)c1ccc(N(C)C)c(Nc2nc(C)nc3cc(OC)c(OC)cc23)c1 [compound 15, 3-((6,7-dimethoxy-2-methylquinazolin-4-yl)amino)-4-(dimethylamino)-N-methylbenzenesulfonamide]",inhibition at 1 µM,ADCK3,9%
same,inhibition at 1 µM,MRCKB,1%
same,inhibition at 1 µM,"KIT(V559D,V654A)",0%
same,inhibition at 1 µM,CSK,2%
same,inhibition at 1 µM,PRKCH,0%
same,inhibition at 1 µM,GRK7,13%
same,inhibition at 1 µM,IGF1R,0%
same,inhibition at 1 µM,RIPK5,12%
same,inhibition at 1 µM,BUB1,7%
same,inhibition at 1 µM,TXK,5%
same,inhibition at 1 µM,[1],0%
same,inhibition at 1 µM,PAK6,3%
same,inhibition at 1 µM,MST4,13%
same,inhibition at 1 µM,AKT1,0%
same,inhibition at 1 µM,EPHA8,3%
same,inhibition at 1 µM,TIE1,11%
same,inhibition at 1 µM,WNK3,0%
same,inhibition at 1 µM,EPHB2,2%
same,inhibition at 1 µM,CDK4-cyclinD3,15%
same,inhibition at 1 µM,PDPK1,0%
same,inhibition at 1 µM,MAP3K2,18%
same,inhibition at 1 µM,CAMK1,0%
same,inhibition at 1 µM,FGFR4,4%
same,inhibition at 1 µM,LRRK2(G2019S),8%

# From publication PMC7180948, “New Insights into 4-Anilinoquinazolines as Inhibitors of Cardiac Troponin I–Interacting Kinase (TNNi3K)” (Molecules, 2020)
